The record followed here is ChEMBL document CHEMBL1144935, “Synthesis, biological evaluation, and receptor docking simulations of 2-[(acylamino)ethyl]-1,4-benzodiazepines as kappa-opioid receptor agonists endowed with antinociceptive and antiamnesic activity” (J Med Chem, 2003).

Test [1] deals with T1, Kappa-type opioid receptor (Homo sapiens, UniProt P41145). The experiment in a line: Binding constant towards human Opioid receptor kappa 1 was reported.
Test [2] concerns the target T1, Kappa-type opioid receptor. The experiment in a line: Binding affinity against opioid receptor kappa 1 from human cloned receptor.
Test [3] has as its target Mu-type opioid receptor (Homo sapiens, UniProt P35372). Briefly: Binding affinity determined against Opioid receptor mu 1 from human cloned receptor.
In test [4] the target is Kappa-type opioid receptor (Cavia porcellus, UniProt P41144). Briefly: Binding affinity determined against Opioid receptor kappa 1 from a native receptor in guinea pig.
Chain of Kappa-type opioid receptor (Cavia porcellus, UniProt P41144) (P41144 whole entry): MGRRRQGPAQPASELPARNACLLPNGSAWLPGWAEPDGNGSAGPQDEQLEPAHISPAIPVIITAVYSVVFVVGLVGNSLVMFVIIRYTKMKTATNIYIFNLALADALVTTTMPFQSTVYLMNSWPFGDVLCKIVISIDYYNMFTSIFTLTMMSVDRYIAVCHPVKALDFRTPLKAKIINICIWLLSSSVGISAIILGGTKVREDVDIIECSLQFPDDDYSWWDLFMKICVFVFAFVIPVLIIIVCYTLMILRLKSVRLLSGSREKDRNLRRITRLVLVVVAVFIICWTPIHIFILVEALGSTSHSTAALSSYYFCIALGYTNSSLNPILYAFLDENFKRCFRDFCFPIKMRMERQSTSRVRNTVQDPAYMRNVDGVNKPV
The target in test [5] is Mu-type opioid receptor (Cavia porcellus, UniProt P97266). Briefly: Binding affinity of compound was determined against Opioid receptor mu 1 from native receptor in guinea pig.
Chain of Mu-type opioid receptor (Cavia porcellus, UniProt P97266) (P97266 whole entry): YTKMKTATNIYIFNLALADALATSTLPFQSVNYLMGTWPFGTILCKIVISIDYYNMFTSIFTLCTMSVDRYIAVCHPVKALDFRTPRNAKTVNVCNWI
Test [6] concerns the target Delta-type opioid receptor (Homo sapiens, UniProt P41143).
Description: Binding affinity determined against Opioid receptor delta 1 from human cloned receptor

Chain of Mu-type opioid receptor (Homo sapiens, UniProt P35372) (P35372 whole entry): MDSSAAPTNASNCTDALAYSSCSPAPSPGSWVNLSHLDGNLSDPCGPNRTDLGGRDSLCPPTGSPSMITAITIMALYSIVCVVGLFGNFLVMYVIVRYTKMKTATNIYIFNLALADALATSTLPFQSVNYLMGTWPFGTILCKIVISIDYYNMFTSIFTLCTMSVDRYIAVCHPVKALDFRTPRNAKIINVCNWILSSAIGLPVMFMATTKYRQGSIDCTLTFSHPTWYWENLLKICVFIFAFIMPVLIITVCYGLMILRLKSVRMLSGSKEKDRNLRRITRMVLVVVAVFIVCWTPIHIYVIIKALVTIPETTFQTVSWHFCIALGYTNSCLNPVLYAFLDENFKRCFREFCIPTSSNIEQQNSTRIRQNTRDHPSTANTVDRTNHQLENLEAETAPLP
T1 sequence (P41145 whole entry): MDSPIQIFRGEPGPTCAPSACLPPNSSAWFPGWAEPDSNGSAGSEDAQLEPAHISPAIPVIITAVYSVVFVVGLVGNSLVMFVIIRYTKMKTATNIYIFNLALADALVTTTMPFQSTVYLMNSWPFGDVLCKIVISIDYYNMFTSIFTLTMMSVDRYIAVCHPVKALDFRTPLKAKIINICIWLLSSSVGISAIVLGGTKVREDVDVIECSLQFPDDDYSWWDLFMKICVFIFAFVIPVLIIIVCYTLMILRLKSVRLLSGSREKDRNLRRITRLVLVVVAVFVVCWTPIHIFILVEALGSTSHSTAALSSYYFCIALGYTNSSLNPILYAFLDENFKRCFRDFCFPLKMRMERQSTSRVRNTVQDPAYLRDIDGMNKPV
Chain of Delta-type opioid receptor (P41143 whole entry): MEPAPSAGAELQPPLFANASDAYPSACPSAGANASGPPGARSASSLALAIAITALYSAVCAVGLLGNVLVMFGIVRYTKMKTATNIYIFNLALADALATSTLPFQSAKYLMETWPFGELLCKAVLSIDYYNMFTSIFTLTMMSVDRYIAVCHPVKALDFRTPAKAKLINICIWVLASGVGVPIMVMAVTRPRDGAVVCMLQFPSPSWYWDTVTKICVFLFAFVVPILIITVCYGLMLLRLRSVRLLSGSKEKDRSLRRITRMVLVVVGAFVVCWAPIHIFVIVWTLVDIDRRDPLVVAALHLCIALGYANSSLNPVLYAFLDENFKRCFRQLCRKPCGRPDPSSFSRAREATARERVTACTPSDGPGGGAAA

As to `O=C(NCCC1CN=C(c2ccccc2)c2ccccc2N1)c1ccccc1` (configuration not stated), the inhibition constant Ki (in general, a measure of affinity in units of concentration, obtained from inhibition or displacement) in test [1] was 0.251 nM; in test [2] it was 0.25 nM.
With `CN1c2ccc(Cl)cc2C(c2ccccc2)=NCC1CCNC(=O)c1cccs1` (configuration not stated), the Ki in test [3] stood at 26.3 nM; in test [2] it was 0.7 nM.
In the case of `CN1c2ccc(Cl)cc2C(c2ccccc2)=NCC1CCNC(=O)c1ccccc1F` (configuration not stated), the inhibition constant (Ki) is 1.55 nM in test [1] and 1.52 nM in test [2].
For `COc1cccc2c1C(c1ccccc1)=NCC(CCNC(=O)c1cccs1)N2C` (configuration not stated), the results for the inhibitory constant (Ki) in test [1], in test [4] and in test [2] were 3.8 nM, 116 nM and 3.77 nM, respectively.
The like results for `O=C(NCCC1CN=C(c2ccccc2)c2ccccc2N1)c1cccs1` (configuration not stated) were, in that order, 0.447 nM, 1.74 nM and 0.45 nM.
`CN1c2ccccc2C(c2ccccc2)=NCC1CCNC(=O)c1ccc(F)cc1` (configuration not stated): the Ki is 0.302 nM in test [1] and 0.3 nM in test [2].
Turning to `CN1c2ccc(Cl)cc2C(c2ccccc2)=NCC1CCNC(=O)c1cc2ccccc2[nH]1` (configuration not stated), the inhibitory constant (Ki) is 13.5 nM in test [1] and 13.6 nM in test [2].
As to `CN1c2ccccc2C(c2ccccc2F)=NCC1CCNC(=O)c1ccsc1` (configuration not stated), the inhibition constant (Ki) in test [3] was 3 nM; in test [5] it was 1.93 nM; in test [4], 0.78 nM; in test [2] it was 0.37 nM; in test [6], 69 nM.
Regarding `CN1c2ccc(Cl)cc2C(c2ccccc2)=NCC1CCNC(=O)c1ccc(F)cc1` (configuration not stated), the Ki in test [1] and in test [2] was 0.55 nM each time.
Consider `CN1c2ccccc2C(c2ccccc2)=NCC1CCNC(=O)c1cccs1` (configuration not stated), for which the Ki came to 9.4 nM in test [3] and 0.58 nM in test [2].
On to `CN1c2ccccc2C(c2ccccc2)=NC[C@@H]1CCNC(=O)c1cccs1`, for which the Ki is 0.427 nM in test [1], 9.2 nM in test [3] and 0.43 nM in test [2].
Consider `CN1c2ccc(Cl)cc2C(c2ccccc2)=NC[C@@H]1CCNC(=O)c1cccs1`, for which the figures for the Ki in test [1], in test [3] and in test [2] were 0.692 nM, 27.4 nM and 0.69 nM, respectively.
Turning to `CN1c2ccccc2C(c2ccccc2F)=NC[C@@H]1CCNC(=O)c1ccsc1`, the Ki in test [1] was 0.17 nM; in test [3], 1.5 nM; in test [2], 0.17 nM; in test [6], 27.8 nM.
Turning to `CN1c2ccccc2C(c2ccccc2)=NC[C@H]1CCNC(=O)c1cccs1`, the Ki in test [3] was determined as 54.8 nM; in test [2], 1.28 nM.
Regarding `CN1c2ccc(Cl)cc2C(c2ccccc2)=NC[C@H]1CCNC(=O)c1cccs1`, the inhibitory constant (Ki) turned out to be 33.2 nM in test [3] and 0.79 nM in test [2].
On to `CN1c2ccccc2C(c2ccccc2F)=NC[C@H]1CCNC(=O)c1ccsc1`, for which the results for the Ki in test [3], in test [2] and in test [6] were 24.8 nM, 0.71 nM and 438 nM, respectively.
Consider `O=C(NCCC1CN=C(c2ccccc2)c2ccccc2N1)c1ccccc1F` (configuration not stated), for which the Ki was 0.537 nM in test [1] and 0.53 nM in test [2].
As to `CN1c2ccccc2C(c2ccccc2)=NCC1CCNC(=O)c1ccc([N+](=O)[O-])cc1` (configuration not stated), the inhibition constant Ki in test [1] is 0.479 nM; in test [2], 0.47 nM.
Turning to `CN(CCC1CN=C(c2ccccc2)c2ccccc2N1C)C(=O)c1cccs1` (configuration not stated), the inhibition constant (Ki) in test [1] is 4.37 nM; in test [4] it was 25.7 nM; in test [2], 4.34 nM.
In the case of `CN1c2ccc(Cl)cc2C(c2ccccc2)=NCC1CCNC(=O)c1ccc(Cl)cc1` (configuration not stated), the Ki is 1.32 nM in test [1] and 1.31 nM in test [2].
As to `O=C(NCCC1CN=C(c2ccccc2)c2ccccc2N1)c1ccc(F)cc1` (configuration not stated), the inhibition constant (Ki) is 0.282 nM in test [1] and 0.28 nM in test [2].
On to `CN1c2ccccc2C(c2ccccc2)=NCC1CCNC(=O)c1ccccc1F` (configuration not stated), for which the inhibition constant Ki in test [1] was 0.363 nM; in test [2], 0.36 nM.
As for `Oc1ccc2c3c1O[C@H]1c4[nH]c5ccccc5c4C[C@@]4(O)[C@@H](C2)N(CC2CC2)CC[C@]314` [NALTRINDOLE], the values for the Ki in test [5] and in test [4] were 14.7 nM and 10.2 nM, respectively.
